Measurements from paper PMC4645160, “Targeting kinases with anilinopyrimidines: discovery of N-phenyl-N’-[4-(pyrimidin-4-ylamino)phenyl]urea derivatives as selective inhibitors of class III receptor tyrosine kinase subfamily” (Scientific Reports, 2015).
Read-outs that look alike come from different tables or passages of the source.

Legend:
A375 cells = experiment: MTT cytotoxicity assay, A375 melanoma cells; type: cell-based; conditions: Homo sapiens, A-375; MTT test, 72 h; read-out: A375 IC50 (μM) ± SD
Protocol: The cytotoxic profile of 19 and 27 was assessed on a wider panel of human tumor cell lines including also examples of breast (MCF-7), cervical (A431), colorectal (HCT-15), and ovarian (2008) cancers as well as melanoma (A375), besides lung (A549) and pancreatic (BxPC3) cancer cells. IC50 values, calculated from the dose-survival curves obtained after 72 h of drug treatment from the MTT test, are reported in Table 2. […] Both compounds were endowed with a cytotoxic potency higher than that of SU, eliciting IC50 values in the low micromolar range.
All compounds, except derivative 27, were dissolved in DMSO just before the experiment, and a calculated amount of drug solution was added to the cell growth medium to a final solvent concentration of 0.5%, which had no discernible effect on cell killing. Compound 27 was dissolved in a 0.9% NaCl solution just before the experiment.
Human lung (A549), breast (MCF-7), pancreas (BxPC3), and colon (LoVo) carcinoma cell lines along with melanoma (A375) were obtained from American Type Culture Collection (ATCC, Rockville, MD). Human non-tumor embryonic kidney HEK293 cells were obtained from European Collection of Cell Cultures (ECACC, Salisbury, UK). Human cervical carcinoma A431cells were kindly provided by Prof. F. Zunino (Division of Experimental Oncology B, Istituto Nazionale dei Tumori, Milan, Italy). Human ovarian cancer 2008 cells were kindly provided by Prof. G. Marverti (Dept. of Biomedical Science of Modena University, Italy). […]
The growth inhibitory effect towards human cell lines was evaluated by means of MTT (tetrazolium salt reduction) assay. […] After overnight incubation, the inhibition of cell growth induced by the tested complexes was detected by measuring the absorbance of each well at 570 nm using a Bio-Rad 680 microplate reader (Bio-Rad, Hercules, CA). Mean absorbance for each drug dose was expressed as a percentage of the control untreated well absorbance and plotted vs drug concentration.

CSF1R = target: T1, CSF1R (Homo sapiens, UniProt P07333); experiment: KinomeScan Kd determination, CSF1R; type: binding; conditions: for KdRTK/KdKIT, CSF1R: Kd CSF1R over Kd KIT; for Kd: KinomeScan
T1 construct: purchased DiscoverX (KinomeScan service)
Protocol: (§1) The compounds were evaluated using the KinomeScan™ platform (http://www.discoverx.com/services/drug-discovery-development-services/kinase-profiling/kinomescan), that measures the ability of the test compound to disrupt the complex between a high affinity ATP-mimic probe immobilized on a solid support and the kinase of interest. The KinomeScan is a very helpful technology for the fast and reliable screening of a number of compounds against a wide and customizable panel of kinases. Besides, it is not based on the use of hazardous radioactive ^32P-ATP and has a very low rate of false positive (<1%)[44]. The screening platform outputs a “Percent of Control” (POC) value, statistically correlated to the dissociation constant (Kd) value (http://www.discoverx.com/tools-resources/leadhunter-study-reports-data-analysis), for each pair of kinase/ligand. The POC is calculated as reported in equation (1): […]
(§2) The ability of compounds 19 and 27 to bind the class III RTK members was measured (Table 2; see also Figs S3 and S4 for dose/response curves).
(§3) Figure S3. Dose/response curve for compound 19 against tested kinases for Kd determination. The amount of kinase measured by qPCR (Signal; y-axis) is plotted against the corresponding compound concentration in nM in log10 scale (x-axis). Data points marked with an "x" were not used for Kd determination.
(§4) (1 picture or pasted object on this page, not shown here)
(§5) Figure S4. Dose/response curve for compound 27 against tested kinases for Kd

FLT3 = target: T2, FLT3 (Homo sapiens, UniProt P36888); experiment: KinomeScan Kd determination, FLT3; type: binding; conditions: for KdRTK/KdKIT, FLT3: Kd FLT3 over Kd KIT; for Kd: KinomeScan
T2 construct: purchased DiscoverX (KinomeScan service)
T2 sequence (P36888 27-993): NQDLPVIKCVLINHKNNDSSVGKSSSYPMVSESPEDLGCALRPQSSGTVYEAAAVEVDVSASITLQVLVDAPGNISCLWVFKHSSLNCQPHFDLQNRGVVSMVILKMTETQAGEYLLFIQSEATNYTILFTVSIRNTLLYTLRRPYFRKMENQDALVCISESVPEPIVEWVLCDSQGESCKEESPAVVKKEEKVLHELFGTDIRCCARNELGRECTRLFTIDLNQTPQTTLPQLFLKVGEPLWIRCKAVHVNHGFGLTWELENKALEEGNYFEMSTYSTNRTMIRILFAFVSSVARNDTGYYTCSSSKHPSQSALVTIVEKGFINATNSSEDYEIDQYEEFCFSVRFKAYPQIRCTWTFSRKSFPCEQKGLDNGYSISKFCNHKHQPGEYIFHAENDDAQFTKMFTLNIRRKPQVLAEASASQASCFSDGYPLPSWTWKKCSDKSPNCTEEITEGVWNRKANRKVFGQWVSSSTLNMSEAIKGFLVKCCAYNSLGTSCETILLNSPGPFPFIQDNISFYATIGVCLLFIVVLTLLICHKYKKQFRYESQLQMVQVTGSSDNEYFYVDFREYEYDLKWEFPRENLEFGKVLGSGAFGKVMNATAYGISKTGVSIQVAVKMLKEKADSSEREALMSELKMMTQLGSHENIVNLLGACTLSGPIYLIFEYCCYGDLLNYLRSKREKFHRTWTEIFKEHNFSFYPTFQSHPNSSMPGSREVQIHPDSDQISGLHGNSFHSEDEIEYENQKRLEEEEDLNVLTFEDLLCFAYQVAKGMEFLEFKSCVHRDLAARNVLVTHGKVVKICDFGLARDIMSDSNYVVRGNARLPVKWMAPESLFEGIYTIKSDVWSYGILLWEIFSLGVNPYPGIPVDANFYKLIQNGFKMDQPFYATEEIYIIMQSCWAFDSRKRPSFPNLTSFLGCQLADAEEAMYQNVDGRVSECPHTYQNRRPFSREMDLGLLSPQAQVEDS
Protocol: as §1, §2, §3, §4, §5

T1 sequence (P07333 20-972): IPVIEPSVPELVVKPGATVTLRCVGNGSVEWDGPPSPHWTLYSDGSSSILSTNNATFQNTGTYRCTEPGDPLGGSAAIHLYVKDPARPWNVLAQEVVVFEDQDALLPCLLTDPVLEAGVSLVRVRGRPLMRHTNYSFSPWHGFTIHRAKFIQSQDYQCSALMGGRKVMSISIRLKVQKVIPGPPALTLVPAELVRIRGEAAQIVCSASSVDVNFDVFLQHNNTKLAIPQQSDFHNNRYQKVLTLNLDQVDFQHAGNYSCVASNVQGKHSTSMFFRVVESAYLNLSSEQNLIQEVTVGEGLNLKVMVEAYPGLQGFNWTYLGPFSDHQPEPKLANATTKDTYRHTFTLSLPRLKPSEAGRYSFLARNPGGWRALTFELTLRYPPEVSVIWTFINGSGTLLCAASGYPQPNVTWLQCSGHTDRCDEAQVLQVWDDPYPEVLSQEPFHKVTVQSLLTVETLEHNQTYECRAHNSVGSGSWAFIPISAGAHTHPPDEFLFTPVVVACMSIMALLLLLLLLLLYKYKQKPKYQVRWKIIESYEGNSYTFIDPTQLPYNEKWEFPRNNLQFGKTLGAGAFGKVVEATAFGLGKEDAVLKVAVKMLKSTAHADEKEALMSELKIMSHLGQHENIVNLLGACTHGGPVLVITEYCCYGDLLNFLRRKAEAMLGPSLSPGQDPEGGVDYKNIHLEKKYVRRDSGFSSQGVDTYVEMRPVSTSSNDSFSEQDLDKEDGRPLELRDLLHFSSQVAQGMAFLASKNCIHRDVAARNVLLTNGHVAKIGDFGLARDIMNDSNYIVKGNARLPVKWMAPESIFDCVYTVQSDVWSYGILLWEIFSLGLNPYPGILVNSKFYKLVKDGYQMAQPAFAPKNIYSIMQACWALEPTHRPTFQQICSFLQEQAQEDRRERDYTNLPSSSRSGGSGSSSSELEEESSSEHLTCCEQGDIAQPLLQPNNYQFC

| Structure (SMILES) | IC50 (A375 cells) | KdRTK/KdKIT, CSF1R (CSF1R) | Kd (CSF1R; read-out: Kd (nM) CSF1R) | KdRTK/KdKIT, FLT3 (FLT3) | Kd (FLT3; read-out: Kd (nM) FLT3) | Potency improvement Kd19/Kd27, CSF1R (CSF1R; 27 versus 19) | Kd (CSF1R; bound stated, read-out: Kd against CSF1R) | Potency improvement Kd19/Kd27, FLT3 (FLT3; 27 versus 19) | Kd (FLT3; bound stated, read-out: Kd against FLT3) |
| --- | --- | --- | --- | --- | --- | --- | --- | --- | --- |
| O=C(Nc1ccccc1)Nc1ccc(Nc2cc(-c3ccccc3)ncn2)cc1 [Compound 19] | 6.41 ± 2.02 µM | 132 | 2900 nM | 209 | 4600 nM |  |  |  |  |
| O=C(CN1CCOCC1)Nc1cccc(-c2cc(Nc3ccc(NC(=O)Nc4ccccc4)cc3)ncn2)c1 [Compound 27] | 5.56 ± 1.39 µM | 110 | 1100 nM | 130 | 1300 nM | 2.6 | > 1000 nM | 3.5 | > 1000 nM |
